Results reported in patent US20220194918A1, “PLEUROMULIN LIPOIC ACID ESTER WITH ANTIBACTERIAL ACTIVITY AND A METHOD OF PREPARING THE SAME” (SHAANXI UNIVERSITY OF SCIENCE AND TECHNOLOGY, priority 2020, published 2022).

Legend:
Format in all cases: cell-based
[1] = tested on: multi-resistant Staphylococcus aureus 18-596; assay: Paper diffusion drug sensitivity test, multi-resistant Staphylococcus aureus 18-596; details: for Zone of inhibition: Multi-resistant Staphylococcus aureus 18-596, 30 μg/tablet paper disc, LB plate, 37° C., 24 h; for inhibitory effect (in words): multi-drug resistant Staphylococcus aureus 18-596, FIGS. 1-3 and Table 1
Experimental: (§1) The antimicrobial efficacy was determined by a paper diffusion drug sensitivity test.
(§2) Experimental strains: multi-resistant Staphylococcus aureus 18-206, multi-resistant Staphylococcus aureus 18-222, multi-resistant Staphylococcus aureus 18-596. The experimental strain was identified by Huashan Hospital Affiliated to Fudan University (Institute of Antibiotic of Fudan University).
(§3) Drug sensitive paper: The drug sensitive paper is a special drug sensitive paper with a diameter of 6.35 mm and a water absorption of 0.02 mL. The control drug was vancomycin (30μg/tablet); the test drugs were pleuromulin (30 μg/tablet), lipoic acid (30 μg/tablet) and pleuromulin lipoic acid ester (30 μg/tablet).
(§4) Reagents: LB agar medium, LA broth medium, 0.5% DMSO solution.
(§5) The experimental strains were inoculated in non-selective medium and placed in air at 37° C. for 24 h. Pick a single colony that grows well and inoculate it into broth medium, incubate at 35° C.±2° C. for 6 hours, and use LA broth medium to calibrate the concentration of the bacterial solution to 0.5 Mie turbidimetric tube (1.5×10^8 CFU/mL). A bacterial suspension is obtained.
(§6) Weigh the LB dry powder, sterilize at 103.4 Kpa, 121.3° C. high-pressure steam for 15 min, and then put it in a 40° C.-50° C. water bath. Place a sterile empty plate (inner diameter 9 cm) on the surface of the ultra-clean table water table, shake and shake LB, and then pour the plate. The thickness of each plate is 3 mm to 4 mm. After the plate is cooled at room temperature, store it in the refrigerator at 2° C.-8° C. Use a sterile cotton swab to dip the bacterial solution, and evenly coat the surface of the LB plate 3 times. After inoculation of the bacterial suspension, the LB plate was dried at room temperature for 3 min to 5 min. Use sterile forceps to closely attach the antibacterial drug paper to the dish. Put the dish upside down and place it in a 37° C. incubator for 24 h. Observe the result and measure the diameter. Taking 0.5% DMSO solution as a negative control, the antibacterial activity is expressed by the diameter of the inhibition zone. The inhibition zone 17 mm, sensitive; the inhibition zone is 15 mm-16 mm, intermediary; the inhibition zone 14 mm, drug resistance.

[2] = tested on: multi-resistant Staphylococcus aureus 18-206; assay: Paper diffusion drug sensitivity test, multi-resistant Staphylococcus aureus 18-206; details: for Zone of inhibition: Multi-resistant Staphylococcus aureus 18-206, 30 μg/tablet paper disc, LB plate, 37° C., 24 h; for inhibitory effect (in words): multi-drug resistant Staphylococcus aureus 18-206, FIGS. 1-3 and Table 1
Experimental: as §1, §2, §3, §4, §5, §6

[3] = tested on: multi-resistant Staphylococcus aureus 18-222; assay: Paper diffusion drug sensitivity test, multi-resistant Staphylococcus aureus 18-222; details: for Zone of inhibition: Multi-resistant Staphylococcus aureus 18-222, 30 μg/tablet paper disc, LB plate, 37° C., 24 h; for inhibitory effect (in words): multi-drug resistant Staphylococcus aureus 18-222, FIGS. 1-3 and Table 1
Experimental: as §1, §2, §3, §4, §5, §6

Compound: O=C(O)CCCC[C@@H]1CCSS1 (racemic) [Lipoic acid]
- Zone of inhibition [1]: 0 mm
- inhibitory effect (in words) [1]: no inhibitory effect
- Zone of inhibition [2]: 0 mm
- inhibitory effect (in words) [2]: no inhibitory effect
- Zone of inhibition [3]: 0 mm
- inhibitory effect (in words) [3]: no inhibitory effect

Compound: C=C[C@]1(C)C[C@@H](OC(=O)COC(=O)CCCCC2CCSS2)[C@]2(C)CC[C@@H](C)[C@@]3(CCC(=O)[C@@H]23)[C@@H](C)[C@@H]1O (stereo partly drawn) [Pleuromulin lipoic acid ester, 2-(((3aS,4R,5S,6S, 8R,9R,9aR,12R)-5-hydroxy-4,6,9,12-tetramethyl-1-oxo-6-vinyldecahydro-3 a, 9-propanocyclopenta[8]annulen-8-yl)oxy)-2-oxoethyl 5-(1,2-dithiolan-3-yl)pentanoate]
- Zone of inhibition [1]: 20 mm
- inhibitory effect (in words) [1]: strong inhibitory effects
- diameter of bacteriostatic zone ([1]; multidrug resistant Staphylococcus aureus 18-596): up to 21 mm
- Zone of inhibition [2]: 16 mm
- inhibitory effect (in words) [2]: strong inhibitory effects
- Zone of inhibition [3]: 16 mm
- inhibitory effect (in words) [3]: strong inhibitory effects

Compound: C=C[C@]1(C)C[C@@H](OC(=O)CO)[C@]2(C)[C@H](C)CC[C@]3(CCC(=O)[C@H]32)[C@@H](C)[C@@H]1O [Pleuromulin]
- Zone of inhibition [1]: 0 mm
- inhibitory effect (in words) [1]: no inhibitory effect
- Zone of inhibition [2]: 0 mm
- inhibitory effect (in words) [2]: no inhibitory effect
- Zone of inhibition [3]: 0 mm
- inhibitory effect (in words) [3]: no inhibitory effect

Compound: CN[C@H](CC(C)C)C(=O)N[C@H]1C(=O)N[C@@H](CC(N)=O)C(=O)N[C@H]2C(=O)N[C@H]3C(=O)N[C@H](C(=O)N[C@H](C(=O)O)c4cc(O)cc(O)c4-c4cc3ccc4O)[C@H](O)c3ccc(c(Cl)c3)Oc3cc2cc(c3O[C@@H]2O[C@H](CO)[C@@H](O)[C@H](O)[C@H]2O[C@H]2C[C@](C)(N)[C@H](O)[C@H](C)O2)Oc2ccc(cc2Cl)[C@H]1O [Vancomycin]
- Zone of inhibition [1]: 21 mm
- Zone of inhibition [2]: 17 mm
- Zone of inhibition [3]: 18 mm
